From patent US20240043410A1, “SULPHAMOYL UREA DERIVATIVES CONTAINING ALKYL-OXACYCLOALKYL MOIETY AND USES THEREOF” (NodThera Limited, priority 2020, published 2024)
pIC50: −log10 of the molar value. In brackets after ≈: the same amount, converted by molar mass. Counter-ions that a name gives are not always drawn.

Assays:
[1] = test system: IL-1β release upon NLRP3 activation in peripheral blood mononuclear cells (PBMC); test: PBMC IC50 Determination Assay; assay type: cell-based; settings: Homo sapiens; LPS-primed PBMC stimulated with ATP (5 mM) or nigericin (10 μM); IL-1β by ELISA (Protocol A) or HTRF (Protocol B); salts tested
Experimental: PBMC IC50 Determination Assay. The compounds of the present disclosure were tested for their inhibitory activity against IL-1β release upon NLRP3 activation in peripheral blood mononuclear cells (PBMC).
Protocol A. PBMC were isolated from buffy coats by density gradient centrifugation on Histopaque-1077 (Sigma, cat no. 10771). Isolated cells were seeded into the wells of a 96-well plate and incubated for 3 h with lipopolysaccharide (LPS). Following medium exchange, the compounds of the present disclosure were added (a single compound per well) and the cells were incubated for 30 min. Next, the cells were stimulated either with ATP (5 mM) or nigericin (10 μM) for 1 h and the cell culture media from the wells were collected for further analysis. The release of IL1-β into the media was determined by a quantitative detection of IL-1β in the media using an IL-1β enzyme-linked immunosorbent assay (ELISA) Ready-SET-Go!, eBioscience cat. No. 88-7261-88. Briefly, in a first step, high affinity binding plates (Corning, Costar 9018 or NUNC Maxisorp Cat No. 44-2404) were coated overnight at 4° C. with specific capture antibody included in the kit (anti-human IL-1β ref. 14-7018-68). Subsequently, plates were blocked with blocking buffer for 1 h at room temperature (rt) and after washing with a buffer (PBS with 0.05% Tween-20) incubated with protein standard and culture media. After 2 h of incubation at rt, plates were washed and incubated with biotinylated detection antibody included in the kit (anti-human IL-1β Biotin ref. 33-7110-68) for 1 h at rt. Plates were washed and incubated with HRP-streptavidin for 30 min at rt and washed again. The signal was developed after addition of 3,3′,5,5′-tetramethylbenzidine-peroxidase (TMB) until colour appeared and the reaction was stopped by 2 M H2SO4. A microplate spectrophotometer (BioTek) was used to detect signals with 450 nm. The detection range of IL-1β 3 ELISA was 2-150 ng/mL.
Protocol B. PBMC were isolated from buffy coats by density gradient centrifugation on Histopaque-1077 (Sigma, cat no. 10771). Isolated cells were seeded into the wells (280,000 cells/well) of a 96-well plate and incubated for 3 h with lipopolysaccharide (LPS, 1 μg/mL diluted 1000× from a 1 mg/mL stock solution). The compounds of the present disclosure were added (a single compound per well) and the cells were incubated for 30 min. Next, the cells were stimulated with ATP (5 mM final concentration diluted 20× from a 100 mM stock solution) for 1 h and the cell culture media from the wells were collected for further analysis. The release of IL-1β into the media was determined by quantitative detection of IL-1 in the media using HTRF®, CisBio cat. No. 62HIL1BPEH. Briefly, cell culture supernatant were dispensed directly into the assay plate containing antibodies labelled with the HTRF® donor and acceptor. A microplate spectrophotometer (BMG) was used to detect signals at 655 nm and 620 nm. The detection range of IL-1β HTRF® was […].

[2] = Thermodynamic (equilibrium) solubility assay; assay type: physicochemical; settings: aqueous buffer, thermodynamic from solid; 50 mM pH 7.4 phosphate buffer, 24 hours at room temperature
Experimental: Thermodynamic Solubility Studies. The compounds of the present disclosure were tested in an equilibrium solubility assay.
An appropriate amount of test and control compounds were weighed into lower chambers of Whatman Mini-UniPrep vials. To these were added 50 mM pH 7.4 phosphate buffer (450 μL) to get a super-saturated suspension. The samples were vortexed for at least 2 minutes. The Whatman Mini-UniPrep vials were shaken on a shaker for 24 hours at room temperature at 800 rpm. The vials were centrifuged for 20 minutes (eg. 4000 rpm). Samples were compressed to prepare filtrates for injection into HPLC system and the concentration calculated with a standard curve. […] As shown in the table, compounds of the present disclosure may display improved properties (e.g., over the compounds in the prior art), such as enhanced potency, solubility, membrane permeability and transporter efflux.

[3] = test system: P-glycoprotein (P-gp) or breast cancer resistance protein (BCRP); test: BCRP and P-gp Caco-2 permeability assay; assay type: in vitro ADME; settings: efflux ratio, Caco-2 cells
Experimental: BCRP and P-gp Caco-2 Studies. The compounds of the present disclosure were tested in a Caco-2 permeability assay to assess whether they are actively transported out of cells by the efflux proteins, P-glycoprotein (P-gp) or breast cancer resistance protein (BCRP).
Caco-2 cells were used between passage numbers 40-60. Cells were seeded onto Millipore Multiscreen Transwell plates at […]. The cells were cultured in DMEM and media was changed every two or three days. On Day 18-22 the BCRP inhibition study was performed. Cell culture and assay incubations were carried out at 37° C. in an atmosphere of 5% CO2 with a relative humidity of 95%. On the day of the assay, the monolayers were prepared by rinsing both apical and basolateral surfaces twice with warmed (37° C.) transport buffer (Hanks Balanced Salt Solution [HBSS] containing 25 mM HEPES and 4.45 mM glucose, pH 7.4). Cells were then incubated with transport buffer containing test compound or positive control inhibitor (novobiocin) in both apical and basolateral compartments for 30 minutes at 37° C. For the inhibition studies a P-gp inhibitor or BCRP inhibitor was included on both sides of the monolayer for the equilibration period. The dosing solutions were prepared by diluting estrone 3-sulfate and test compound where applicable to give a final estrone 3-sulfate concentration of 1 μM (final DMSO concentration of 1% v/v). The fluorescent integrity marker lucifer yellow was prepared in receiver solutions in vehicle or test compound-containing transport buffer. After pre-incubation, the transport buffer was removed from both apical and basolateral compartments and replaced with the appropriate dosing or receiver solution. For assessment of B-A permeability, transport buffer was removed from the basolateral companion plate and replaced with dosing solution. Fresh transport buffer containing lucifer yellow and test compound where applicable (final DMSO concentration 1% v/v) was added to the apical compartment insert, which was then placed into the companion plate. After a 90-minute incubation the apical compartment inserts and the companion plates were separated and compartments sampled for analysis. Seven concentrations of compound (up to 100 μM) were assessed in addition to a vehicle control (0 μM). A triplicate determination of each concentration was performed. The positive control inhibitor was evaluated in parallel. [^3H]-estrone 3-sulfate was quantified by liquid scintillation counting to give disintegrations per minute (dpm). The integrity of the monolayer throughout the experiment was checked by monitoring lucifer yellow permeation using fluorimetric analysis. Corrected B-A apparent permeability (Papp) of probe substrate was calculated by subtracting its mean passive Papp determined in the presence of the highest concentration of positive control inhibitor (giving 100% transporter inhibition). The mean corrected B-A Papp from vehicle wells (0 μM test compound) was defined as 100% transport activity and this value was then used to calculate the percentage control transport activity for all other test compound concentrations. Percentage control transport activity was plotted against test compound concentration and fitted to calculate an IC50 value.
The efflux ratio (ER) values of compounds of the present disclosure are shown in Table B below (“****” means <3; “***” 3≥ and <10; “**” means ≥10 and <30; “*” means ≥30).

[4] = PAMPA permeability assay; assay type: in vitro ADME; settings: 10 μM donor, PBS, 4 hours at room temperature, lecithin/dodecane membrane
Experimental: PAMPA Studies. The compounds of the present disclosure were tested in a PAMPA permeability assay to assess passive transcellular permeation.
Protocol. 0.2 mM working solution was prepared by diluting 10 mM stock solution with DMSO. 10 μM donor solution (5% DMSO) was prepared by diluting 20 μL of working solution with 380 μL PBS. 150 μL of 10 μM donor solutions to each well of the donor plate, whose PVDF membrane was precoated with 5 μL of 1% lecithin/dodecane mixture. Duplicates were prepared. 300 μL of PBS was added to each well of the PTFE acceptor plate. The donor plate and acceptor plate were combined and incubated for 4 hours at room temperature with shaking at 300 rpm. Preparation of TO sample: 20 μL donor solution was transferred to new well followed by the addition of 250 μL PBS (DF: 13.5), 130 μL ACN (containing internal standard) as TO sample. Preparation of acceptor sample: The plate was removed from incubator. 270 μL solution was transferred from each acceptor well and mixed with 130 μL ACN (containing internal standard) as acceptor sample. Preparation of donor sample: 20 μL solution was transferred from each donor well and mixed with 250 μL PBS (DF: 13.5), 130 μL ACN (containing internal standard) as donor sample. Acceptor samples and donor samples were all analysed by LC-MS/MS.
The measured PAMPA permeability values of compounds of the present disclosure are shown in Table B below (“$$$$” means >10 nm/“$$$” means ≥3 and <10 nm/s; “$$” means ≥1 and <3 nm/s; “$” means <1 nm/s).

| SMILES | solubility thermodynamic at 24 h [2] [µg/mL] | Caco-2 ER [3] | PAMPA Pe [4] | pIC50 [1] |
| --- | --- | --- | --- | --- |
| Cn1cc(N(C[C@@H]2C[C@H](O)CO2)S(=O)(=O)NC(=O)Nc2c3c(cc4c2CCC4)CCC3)cn1 (relative stereo) [Compound 2A, Sodium ((1,2,3,5,6,7-hexahydro-s-indacen-4-yl)carbamoyl)(N-((cis-4-hydroxy-tetrahydrofuran-2-yl)methyl)-N-(1-methyl-1H-pyrazol-4-yl)sulfamoyl)amide] |  |  |  | > 7.00 |
| Cn1cc(N(CC2CCCO2)S(=O)(=O)NC(=O)Nc2c3c(cc4c2CCC4)CCC3)cn1 (stereo not drawn) [Compound 1] |  |  |  | > 7.00 |
| Cn1cc(N(C[C@H]2C[C@H](O)CO2)S(=O)(=O)NC(=O)Nc2c3c(cc4c2CCC4)CCC3)cn1 [Compound 2B, 1-(1,2,3,5,6,7-Hexahydro-s-indacen-4-yl)-3-[[(2R,4S)-4-hydroxytetrahydro-furan-2-yl]methyl-(1-methylpyrazol-4-yl)sulfamoyl]urea, sodium salt] |  |  |  | 6.00 to 7.00 |
| Cn1cc(N(CCC2CCCO2)S(=O)(=O)NC(=O)Nc2c3c(cc4c2CCC4)CCC3)cn1 (stereo not drawn) [Compound 5, Sodium [(1,2,3,5,6,7-hexahydro-s-indacen-4-yl)carbamoyl][(1-methyl-1H-pyrazol-4-yl)[2-(oxolan-2-yl)ethyl]sulfamoyl]azanide] | 3000 to 10000 | *** (“***” 3≥ and <10) | $$ (“$$” means ≥1 and <3 nm/s) | 6.00 to 7.00 |
| O=C(Nc1c2c(cc3c1CCC3)CCC2)NS(=O)(=O)N(C[C@@H]1CCCO1)c1cn[nH]c1 [Compound 8A, 1-(1,2,3,5,6,7-hexahydro-s-indacen-4-yl)-3-[1H-pyrazol-4-yl-[[(2S)-tetrahydrofuran-2-yl]methyl]sulfamoyl]urea] |  |  |  | > 7.00 |

Continued, in another order:

| solubility thermodynamic at 24 h [2] [µg/mL] | Caco-2 ER [3] | PAMPA Pe [4] | SMILES | pIC50 [1] |
| --- | --- | --- | --- | --- |
| 3000 to 10000 | **** (“****” means <3) | $$ (“$$” means ≥1 and <3 nm/s) | Cn1cc(N(C[C@@H]2CCCO2)S(=O)(=O)NC(=O)Nc2c3c(cc4c2CCC4)CCC3)cn1 [Compound 1A, Sodium [(1,2,3,5,6,7-hexahydro-s-indacen-4-yl)carbamoyl][(1-methyl-1H-pyrazol-4-yl)({[(2S)-oxolan-2-yl]methyl})sulfamoyl]azanide] | > 7.00 |
| 1000 to 3000 | **** (“****” means <3) | $$ (“$$” means ≥1 and <3 nm/s) | Cn1cc(N(C[C@H]2CCCO2)S(=O)(=O)NC(=O)Nc2c3c(cc4c2CCC4)CCC3)cn1 [Compound 1B, Sodium [(1,2,3,5,6,7-hexahydro-s-indacen-4-yl)carbamoyl][(1-methyl-1H-pyrazol-4-yl)({[(2R)-oxolan-2-yl]methyl})sulfamoyl]azanide] | > 7.00 |
| 1000 to 3000 (≈ 2.18 to 6.53 mM) | ** (“**” means ≥10 and <30) | $ (“$” means <1 nm/s) | Cn1cc(N(CC2CCOC2)S(=O)(=O)NC(=O)Nc2c3c(cc4c2CCC4)CCC3)cn1 (stereo not drawn) [Compound 4] | 6.00 to 7.00 |
| 3000 to 10000 | **** (“****” means <3) | $$$$ (“$$$$” means >10 nm/) | Cn1cc(N(CC2CCCCO2)S(=O)(=O)NC(=O)Nc2c3c(cc4c2CCC4)CCC3)cn1 (stereo not drawn) [Compound 6, Sodium [(1,2,3,5,6,7-hexahydro-s-indacen-4-yl)carbamoyl][(1-methyl-1H-pyrazol-4-yl)[(oxan-2-yl)methyl]sulfamoyl]azanide] | > 7.00 |
